# Results reported in US20220039384A1, “SELECTIVE WEED CONTROL WITH HALAUXIFEN OR 4-AMINO-3-CHLORO-5-FLUORO-6-(4-CHLORO-2-FLUORO-3-METHOXYPHENYL) PYRIDINE-2-CARBOXYLIC ACID OR DERIVATIVES THEREOF IN VINEYARDS OR PERENNIAL CROPS” (Corteva Agriscience LLC, priority 2013, published 2022).
# Tests used:
# Assay type in all cases: in vivo
# [1] = system: EROCI (Erodium cicutarium, redstem filaree); test: Field trial, post-emergence directed spring application (March), California vineyards: visual weed control
# From the text: (§1) As used herein, selective pre- and post-emergence control of undesirable vegetation means preventing, reducing, killing, or otherwise adversely modifying the development of the undesirable vegetation in the presence of crop plants with limited adverse effect on the crop plants. For example, a broadleaf weed control of 80% (rated visually) with crop injury of less than or equal to 20% (rated visually) would constitute selective control. In some embodiments the adverse effect on crop plants is limited to less than 10% visually rated crop injury. Visual crop injury is a composite rating accounting for all phytotoxic effects including chlorosis, necrosis, growth inhibition, epinasty, delays in maturity and seed or fruit deformity. Visual weed control is a composite rating accounting for reductions in pest plant biomass and/or stand reduction.
# (§2) Small plot research experiments were conducted in Fresno, Calif., USA to evaluate the pre-emergence and post-emergence herbicidal weed control activity and the vines crop tolerance to pre-emergence and post-emergence application of Compound I and Compound II to the weeds. Application water volume of 100 to 187 liters per hectare (L/ha) was used for all experiments. All treatments were applied with a standard small plot carbon dioxide (CO2) backpack sprayer. All treatments were tank-mixed with Crop Oil Concentrate (COC), a well known adjuvant, at 2.34 L/ha. Experimental emulsifiable concentrate (EC) formulations were used for Compounds I and II. The dimethylammonium (DMA) salt of glyphosate was used in all trials. Pindar® GT is a commercial formulation containing a pre-mix of penoxsulam+oxyfluorfen (10+476 grams of active ingredient per liter (g ai/L), respectively). Vine crop stage was dormant (no leaves on the vines during the winter) or early spring growth at the time of Compound I or Compound II application. Generally, weeds were not emerged for the pre-emergence treatments or were at the two to six-leaf stage at the time of the post-emergence herbicide application.
# (§3) Tables 1, 2 and 6 provide weed control results from pre-emergence applications of Compounds I and/or II prior to weed emergence; Tables 4, 7 and 8 provide weed control results from post-emergence applications of Compounds I and/or II applied to actively growing weeds; Tables 3 and 5 provide vine response data from pre-emergence and post-emergence applications of Compound I respectively.
# [2] = system: MEDPO (Medicago polymorpha, California burclover); test: as above
# From the text: as §1, §2, §3
# [3] = system: STEME (Stellaria media, common chickweed); test: as above
# From the text: as §1, §2, §3
# [4] = system: MALPA (Malva parviflora, smallflower malva); test: as above
# From the text: as §1, §2, §3
# VITSS (Vitis spp, grape) = test: Field trial, soil-applied dormant application (December), California vineyards: vine injury and growth response; conditions: applied to the soil
# From the text: as §1, §2, §3
# [5] = system: CHEAL (Chenopodium album, common lambsquarters); test: Field trial, post-emergence directed dormant application (December), California vineyards: visual weed control
# From the text: as §1, §2, §3
# [6] = system: IPOSS (Ipomoea spp, morningglory); test: as above
# From the text: as §1, §2, §3
# [7] = system: AMARE (Amaranthus retroflexus, redroot pigweed); test: as above
# From the text: as §1, §2, §3
# [8] = system: AMSIN (Amsinckia intermedia, coast fiddleneck); test: as above
# From the text: as §1, §2, §3
# [9] = system: CAPBP (Capsella bursa-pastoris, Shepherd's purse); test: as above
# From the text: as §1, §2, §3
# [10] = system: AMSIN (Amsinckia intermedia, coast fiddleneck); test: Field trial, pre-emergence application (February), California vineyards: visual weed control
# From the text: as §1, §2, §3
# [11] = system: CLNCM (Calandrinia ciliata, rock purslane); test: as above
# From the text: as §1, §2, §3
# [12] = system: CAPBP (Capsella bursa-pastoris, Shepherd's purse); test: as above
# From the text: as §1, §2, §3
# [13] = system: POAAN (Poa annua, annual bluegrass); test: Field trial, pre-emergence dormant application (December), California vineyards: visual weed control; conditions: applied prior to weed emergence
# From the text: as §1, §2, §3
# [14] = system: HORMU (Hordeum murinam, wall barley); test: as above; conditions: applied prior to weed emergence
# From the text: as §1, §2, §3
# [15] = system: ERICA (Conyza canadensis, horseweed); test: as above; conditions: applied prior to weed emergence
# From the text: as §1, §2, §3
# [16] = system: CAPBP (Capsella bursa-pastoris, Shepherd's purse); test: as above; conditions: applied prior to weed emergence
# From the text: as §1, §2, §3
compound,measurement,setting,value
"COC(=O)c1nc(-c2ccc(Cl)c(OC)c2F)cc(N)c1Cl [I—Me, methyl 4-amino-3-chloro-6-(4-chloro-2-fluoro-3-methoxyphenyl)pyridine-2-carboxylate]",% Visual Control 59 DAA EROCI,[1]; 2.5 g ae/ha,43.3%
same,% Visual Control 59 DAA EROCI,[1]; 5 g ae/ha,89.7%
same,% Visual Control 59 DAA EROCI,[1]; 10 g ae/ha,94%
same,% Visual Control 59 DAA MEDPO,[2]; 2.5 g ae/ha,100%
same,% Visual Control 59 DAA MEDPO,[2]; 5 g ae/ha,100%
same,% Visual Control 59 DAA MEDPO,[2]; 10 g ae/ha,100%
same,% Visual Control 59 DAA STEME,[3]; 2.5 g ae/ha,46.7%
same,% Visual Control 59 DAA STEME,[3]; 5 g ae/ha,94%
same,% Visual Control 59 DAA STEME,[3]; 10 g ae/ha,95.7%
same,% Visual Control 59 DAA MALPA,[4]; 2.5 g ae/ha,80%
same,% Visual Control 59 DAA MALPA,[4]; 5 g ae/ha,90%
same,% Visual Control 59 DAA MALPA,[4]; 10 g ae/ha,96.7%
same,VITSS % Visual Injury 124 DAA,"VITSS (Vitis spp, grape); 10 g ae/ha",0%
same,VITSS % Visual Injury 184 DAA,"VITSS (Vitis spp, grape); 10 g ae/ha",15%
same,VITSS Branch Length (cm) 184 DAA,"VITSS (Vitis spp, grape); 10 g ae/ha",187 cm
same,VITSS Internode Length (cm) 184 DAA,"VITSS (Vitis spp, grape); 10 g ae/ha",7 cm
same,VITSS Yield (Lbs) 236 DAA,"VITSS (Vitis spp, grape); 10 g ae/ha",71 Lbs
same,VITSS % Visual Injury 124 DAA,"VITSS (Vitis spp, grape); 20 g ae/ha",0%
same,VITSS % Visual Injury 184 DAA,"VITSS (Vitis spp, grape); 20 g ae/ha",18%
same,VITSS Branch Length (cm) 184 DAA,"VITSS (Vitis spp, grape); 20 g ae/ha",172 cm
same,VITSS Internode Length (cm) 184 DAA,"VITSS (Vitis spp, grape); 20 g ae/ha",7 cm
same,VITSS Yield (Lbs) 236 DAA,"VITSS (Vitis spp, grape); 20 g ae/ha",63 Lbs
same,VITSS % Visual Injury 124 DAA,"VITSS (Vitis spp, grape); 40 g ae/ha",0%
same,VITSS % Visual Injury 184 DAA,"VITSS (Vitis spp, grape); 40 g ae/ha",37%
same,VITSS Branch Length (cm) 184 DAA,"VITSS (Vitis spp, grape); 40 g ae/ha",125 cm
same,VITSS Internode Length (cm) 184 DAA,"VITSS (Vitis spp, grape); 40 g ae/ha",6 cm
same,VITSS Yield (Lbs) 236 DAA,"VITSS (Vitis spp, grape); 40 g ae/ha",31 Lbs
same,% Visual Control 57 DAA CHEAL,[5]; 2.5 g ae/ha,100%
same,% Visual Control 57 DAA CHEAL,[5]; 5 g ae/ha,96.7%
same,% Visual Control 57 DAA CHEAL,[5]; 10 g ae/ha,100%
same,% Visual Control 57 DAA IPOSS,[6]; 2.5 g ae/ha,57.8%
same,% Visual Control 57 DAA IPOSS,[6]; 5 g ae/ha,65%
same,% Visual Control 57 DAA IPOSS,[6]; 10 g ae/ha,66.7%
same,% Visual Control 57 DAA AMARE,[7]; 2.5 g ae/ha,95%
same,% Visual Control 57 DAA AMARE,[7]; 5 g ae/ha,96.7%
same,% Visual Control 57 DAA AMARE,[7]; 10 g ae/ha,100%
same,% Visual Control 57 DAA AMSIN,[8]; 2.5 g ae/ha,38.3%
same,% Visual Control 57 DAA AMSIN,[8]; 5 g ae/ha,76.7%
same,% Visual Control 57 DAA AMSIN,[8]; 10 g ae/ha,97.3%
same,% Visual Control 57 DAA CAPBP,[9]; 2.5 g ae/ha,91.7%
same,% Visual Control 57 DAA CAPBP,[9]; 5 g ae/ha,99.3%
same,% Visual Control 57 DAA CAPBP,[9]; 10 g ae/ha,100%
same,% Visual Control 48 DAA AMSIN,[10]; 2.5 g ae/ha,25%
same,% Visual Control 48 DAA AMSIN,[10]; 5 g ae/ha,43.3%
same,% Visual Control 48 DAA AMSIN,[10]; 10 g ae/ha,36.7%
same,% Visual Control 48 DAA CLNCM,[11]; 2.5 g ae/ha,27.6%
same,% Visual Control 48 DAA CLNCM,[11]; 5 g ae/ha,43.3%
same,% Visual Control 48 DAA CLNCM,[11]; 10 g ae/ha,86.7%
same,% Visual Control 48 DAA CAPBP,[12]; 2.5 g ae/ha,50%
same,% Visual Control 48 DAA CAPBP,[12]; 5 g ae/ha,76.7%
same,% Visual Control 48 DAA CAPBP,[12]; 10 g ae/ha,90%
same,% Visual Control 90 DAA POAAN,[13]; 10 g ae/ha,58%
same,% Visual Control 184 DAA POAAN,[13]; 10 g ae/ha,48%
same,% Visual Control 90 DAA POAAN,[13]; 20 g ae/ha,65%
same,% Visual Control 184 DAA POAAN,[13]; 20 g ae/ha,28%
same,% Visual Control 90 DAA POAAN,[13]; 40 g ae/ha,63%
same,% Visual Control 184 DAA POAAN,[13]; 40 g ae/ha,47%
same,% Visual Control 90 DAA HORMU,[14]; 10 g ae/ha,100%
same,% Visual Control 184 DAA HORMU,[14]; 10 g ae/ha,90%
same,% Visual Control 90 DAA HORMU,[14]; 20 g ae/ha,100%
same,% Visual Control 184 DAA HORMU,[14]; 20 g ae/ha,88%
same,% Visual Control 90 DAA HORMU,[14]; 40 g ae/ha,100%
same,% Visual Control 184 DAA HORMU,[14]; 40 g ae/ha,92%
same,% Visual Control 90 DAA ERICA,[15]; 10 g ae/ha,75%
same,% Visual Control 184 DAA ERICA,[15]; 10 g ae/ha,92%
same,% Visual Control 90 DAA ERICA,[15]; 20 g ae/ha,100%
same,% Visual Control 184 DAA ERICA,[15]; 20 g ae/ha,97%
same,% Visual Control 90 DAA ERICA,[15]; 40 g ae/ha,100%
same,% Visual Control 184 DAA ERICA,[15]; 40 g ae/ha,100%
same,% Visual Control 90 DAA CAPBP,[16]; 10 g ae/ha,62%
same,% Visual Control 90 DAA CAPBP,[16]; 20 g ae/ha,58%
same,% Visual Control 90 DAA CAPBP,[16]; 40 g ae/ha,82%
